From PubChem BioAssay AID1963427 (Molecular Pharmacology Branch, DTP, NCI, 2024)
One block for each molecule: values may come before it.

Tested on: 317291-083-R-J1-PDC complex spheroid growth
Assay: Anticancer human tumor 317291-083-R-J1-PDC patient-derived soft tissue sarcoma cell line growth inhibition [Asc]
Details: for IC50: curve of first compound; for viability, T/C: stronger effect = lower value
Method in brief: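 Concentration series start at each agent's clinical Cmax, or at 10 microM when none is established, and drop in half-log steps; agents are applied alone or together to complex spheroids built with HUVEC and hMSC.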
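Note: compound exposure lasted seven days after spheroids formed for three days.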
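Throughout, for viability, T/C: 100% = DMSO vehicle control wells.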

IC50 (second compound 0.00949 µM): > 3 µM
IC50 (second compound 0.03 µM): 2.83 µM
IC50 (second compound 0.0949 µM): > 3 µM
IC50 (second compound 0.3 µM): > 3 µM
IC50 (second compound 0.949 µM): > 3 µM
IC50 (second compound 3 µM): 2.74 µM
Compound: Cc1nc(N2CCC3(CC2)COC(C)C3N)c(CO)nc1Sc1ccnc(N)c1Cl (stereo unspecified) + CCN1C(C(=O)NC23CCC(C(=O)O)(CC2)CC3)C(c2cccc(Cl)c2F)C2(C(=O)Nc3cc(Cl)ccc32)C12CCCCC2
viability, T/C (second compound 0.00949 µM, first compound 0.00949 µM): 103%
viability, T/C (second compound 0.00949 µM, first compound 0.03 µM): 96%
viability, T/C (second compound 0.00949 µM, first compound 0.0949 µM): 94.9%
viability, T/C (second compound 0.00949 µM, first compound 0.3 µM): 74.2%
viability, T/C (second compound 0.00949 µM, first compound 0.949 µM): 95.7%
viability, T/C (second compound 0.00949 µM, first compound 3 µM): 53.6%
viability, T/C (second compound 0.03 µM, first compound 0.00949 µM): 108%
viability, T/C (second compound 0.03 µM, first compound 0.03 µM): 107%
viability, T/C (second compound 0.03 µM, first compound 0.0949 µM): 96.7%
viability, T/C (second compound 0.03 µM, first compound 0.3 µM): 90.8%
viability, T/C (second compound 0.03 µM, first compound 0.949 µM): 69%
viability, T/C (second compound 0.03 µM, first compound 3 µM): 49%
viability, T/C (second compound 0.0949 µM, first compound 0.00949 µM): 104%
viability, T/C (second compound 0.0949 µM, first compound 0.03 µM): 116%
viability, T/C (second compound 0.0949 µM, first compound 0.0949 µM): 92.5%
viability, T/C (second compound 0.0949 µM, first compound 0.3 µM): 78.9%
viability, T/C (second compound 0.0949 µM, first compound 0.949 µM): 70.8%
viability, T/C (second compound 0.0949 µM, first compound 3 µM): 69.4%
viability, T/C (second compound 0.3 µM, first compound 0.00949 µM): 120%
viability, T/C (second compound 0.3 µM, first compound 0.03 µM): 106%
viability, T/C (second compound 0.3 µM, first compound 0.0949 µM): 95.5%
viability, T/C (second compound 0.3 µM, first compound 0.3 µM): 97.9%
viability, T/C (second compound 0.3 µM, first compound 0.949 µM): 73.7%
viability, T/C (second compound 0.3 µM, first compound 3 µM): 56.1%
viability, T/C (second compound 0.949 µM, first compound 0.00949 µM): 86.1%
viability, T/C (second compound 0.949 µM, first compound 0.03 µM): 113%
viability, T/C (second compound 0.949 µM, first compound 0.0949 µM): 93.4%
viability, T/C (second compound 0.949 µM, first compound 0.3 µM): 84.8%
viability, T/C (second compound 0.949 µM, first compound 0.949 µM): 75.7%
viability, T/C (second compound 0.949 µM, first compound 3 µM): 59.2%
viability, T/C (second compound 3 µM, first compound 0.00949 µM): 82.2%
viability, T/C (second compound 3 µM, first compound 0.03 µM): 81.7%
viability, T/C (second compound 3 µM, first compound 0.0949 µM): 82.8%
viability, T/C (second compound 3 µM, first compound 0.3 µM): 82.3%
viability, T/C (second compound 3 µM, first compound 0.949 µM): 66.7%
viability, T/C (second compound 3 µM, first compound 3 µM): 48.5%

IC50 (second compound 0.0316 µM): > 3 µM
IC50 (second compound 0.1 µM): > 3 µM
IC50 (second compound 0.316 µM): > 3 µM
IC50 (second compound 1 µM): > 3 µM
IC50 (second compound 3.16 µM): > 3 µM
IC50 (second compound 10 µM): > 3 µM
Compound: CCN1C(C(=O)NC23CCC(C(=O)O)(CC2)CC3)C(c2cccc(Cl)c2F)C2(C(=O)Nc3cc(Cl)ccc32)C12CCCCC2 (stereo unspecified) + Cc1c(S(C)(=O)=O)c(-c2cc(F)cc(N3CCN(c4ccc(NS(=O)(=O)c5ccc(NC(CCN6CCC(C(=O)OCCCP(=O)(O)O)CC6)CSc6ccccc6)c(S(=O)(=O)C(F)(F)F)c5)cc4)CC3)c2)c(-c2ccc(Cl)cc2)n1C(C)C
viability, T/C (second compound 0.0316 µM, first compound 0.00949 µM): 108%
viability, T/C (second compound 0.0316 µM, first compound 0.03 µM): 122%
viability, T/C (second compound 0.0316 µM, first compound 0.0949 µM): 99.7%
viability, T/C (second compound 0.0316 µM, first compound 0.3 µM): 95.1%
viability, T/C (second compound 0.0316 µM, first compound 0.949 µM): 83.6%
viability, T/C (second compound 0.0316 µM, first compound 3 µM): 80.5%
viability, T/C (second compound 0.1 µM, first compound 0.00949 µM): 110%
viability, T/C (second compound 0.1 µM, first compound 0.03 µM): 90.2%
viability, T/C (second compound 0.1 µM, first compound 0.0949 µM): 89.5%
viability, T/C (second compound 0.1 µM, first compound 0.3 µM): 98.2%
viability, T/C (second compound 0.1 µM, first compound 0.949 µM): 108%
viability, T/C (second compound 0.1 µM, first compound 3 µM): 73.4%
viability, T/C (second compound 0.316 µM, first compound 0.00949 µM): 80.9%
viability, T/C (second compound 0.316 µM, first compound 0.03 µM): 90.8%
viability, T/C (second compound 0.316 µM, first compound 0.0949 µM): 90.3%
viability, T/C (second compound 0.316 µM, first compound 0.3 µM): 98.4%
viability, T/C (second compound 0.316 µM, first compound 0.949 µM): 91.5%
viability, T/C (second compound 0.316 µM, first compound 3 µM): 67.6%
viability, T/C (second compound 1 µM, first compound 0.00949 µM): 92.2%
viability, T/C (second compound 1 µM, first compound 0.03 µM): 90.3%
viability, T/C (second compound 1 µM, first compound 0.0949 µM): 68.9%
viability, T/C (second compound 1 µM, first compound 0.3 µM): 90.2%
viability, T/C (second compound 1 µM, first compound 0.949 µM): 89.7%
viability, T/C (second compound 1 µM, first compound 3 µM): 58%
viability, T/C (second compound 3.16 µM, first compound 0.00949 µM): 83.9%
viability, T/C (second compound 3.16 µM, first compound 0.03 µM): 84.1%
viability, T/C (second compound 3.16 µM, first compound 0.0949 µM): 68.6%
viability, T/C (second compound 3.16 µM, first compound 0.3 µM): 82.1%
viability, T/C (second compound 3.16 µM, first compound 0.949 µM): 85.9%
viability, T/C (second compound 3.16 µM, first compound 3 µM): 63.1%
viability, T/C (second compound 10 µM, first compound 0.00949 µM): 99.3%
viability, T/C (second compound 10 µM, first compound 0.03 µM): 102%
viability, T/C (second compound 10 µM, first compound 0.0949 µM): 90.8%
viability, T/C (second compound 10 µM, first compound 0.3 µM): 85.4%
viability, T/C (second compound 10 µM, first compound 0.949 µM): 94.8%
viability, T/C (second compound 10 µM, first compound 3 µM): 75.8%

IC50 (second compound 0.00949 µM): > 10 µM
IC50 (second compound 0.03 µM): > 10 µM
IC50 (second compound 0.0949 µM): > 10 µM
IC50 (second compound 0.3 µM): > 10 µM
IC50 (second compound 0.949 µM): > 10 µM
IC50 (second compound 3 µM): 8.77 µM
Compound: C=CC(=O)N1CCN(c2nc(=O)n(-c3c(C)ccnc3C(C)C)c3nc(-c4c(O)cccc4F)c(F)cc23)C(C)C1 (stereo unspecified) + CCN1C(C(=O)NC23CCC(C(=O)O)(CC2)CC3)C(c2cccc(Cl)c2F)C2(C(=O)Nc3cc(Cl)ccc32)C12CCCCC2
viability, T/C (second compound 0.00949 µM, first compound 0.0316 µM): 94.8%
viability, T/C (second compound 0.00949 µM, first compound 0.1 µM): 79.8%
viability, T/C (second compound 0.00949 µM, first compound 0.316 µM): 85.8%
viability, T/C (second compound 0.00949 µM, first compound 1 µM): 92.5%
viability, T/C (second compound 0.00949 µM, first compound 3.16 µM): 77.6%
viability, T/C (second compound 0.00949 µM, first compound 10 µM): 71.8%
viability, T/C (second compound 0.03 µM, first compound 0.0316 µM): 90.1%
viability, T/C (second compound 0.03 µM, first compound 0.1 µM): 80.2%
viability, T/C (second compound 0.03 µM, first compound 0.316 µM): 93.2%
viability, T/C (second compound 0.03 µM, first compound 1 µM): 89.3%
viability, T/C (second compound 0.03 µM, first compound 3.16 µM): 84.8%
viability, T/C (second compound 0.03 µM, first compound 10 µM): 71.2%
viability, T/C (second compound 0.0949 µM, first compound 0.0316 µM): 101%
viability, T/C (second compound 0.0949 µM, first compound 0.1 µM): 93.3%
viability, T/C (second compound 0.0949 µM, first compound 0.316 µM): 98.6%
viability, T/C (second compound 0.0949 µM, first compound 1 µM): 94.7%
viability, T/C (second compound 0.0949 µM, first compound 3.16 µM): 84%
viability, T/C (second compound 0.0949 µM, first compound 10 µM): 71.4%
viability, T/C (second compound 0.3 µM, first compound 0.0316 µM): 99.7%
viability, T/C (second compound 0.3 µM, first compound 0.1 µM): 81.2%
viability, T/C (second compound 0.3 µM, first compound 0.316 µM): 94.1%
viability, T/C (second compound 0.3 µM, first compound 1 µM): 93.3%
viability, T/C (second compound 0.3 µM, first compound 3.16 µM): 111%
viability, T/C (second compound 0.3 µM, first compound 10 µM): 69.2%
viability, T/C (second compound 0.949 µM, first compound 0.0316 µM): 85.2%
viability, T/C (second compound 0.949 µM, first compound 0.1 µM): 84.7%
viability, T/C (second compound 0.949 µM, first compound 0.316 µM): 89.2%
viability, T/C (second compound 0.949 µM, first compound 1 µM): 77.7%
viability, T/C (second compound 0.949 µM, first compound 3.16 µM): 83.3%
viability, T/C (second compound 0.949 µM, first compound 10 µM): 67%
viability, T/C (second compound 3 µM, first compound 0.0316 µM): 68.6%
viability, T/C (second compound 3 µM, first compound 0.1 µM): 72.6%
viability, T/C (second compound 3 µM, first compound 0.316 µM): 72.4%
viability, T/C (second compound 3 µM, first compound 1 µM): 98.5%
viability, T/C (second compound 3 µM, first compound 3.16 µM): 82.3%
viability, T/C (second compound 3 µM, first compound 10 µM): 46.3%
